Measured values: the SangsterLogP compilation

Assay: method code SF-AS, from DOI: 10.1246/bcsj.68.782
Conditions: pH 2.0

Row | SMILES | logD
1 | O=C(O)c1ccc(Cl)cc1Cl | 2.76
2 | O=C(O)c1cc(O)c(Br)c(O)c1 | 1.75
3 | Cc1ccc(C(=O)O)c(O)c1 | 2.8
4 | COc1cc(C(=O)O)cc(OC)c1OC | 1.66
5 | COc1cc(C(=O)O)cc(OC)c1O | 1.13
6 | O=C(O)c1cc(Cl)cc(Cl)c1 | 3.29

Other lines, results leading:

Row | logD | SMILES
7 | 2.16 | Cc1c(C(=O)O)cccc1[N+](=O)[O-]
8 | 2.42 | Cc1cc(C(=O)O)ccc1[N+](=O)[O-]
9 | 2.53 | O=C(O)c1ccc(Cl)c([N+](=O)[O-])c1
10 | 1.88 | O=C(O)c1cccc(F)c1F
11 | 1.63 | Cc1ccc([N+](=O)[O-])c(C(=O)O)c1
12 | 2.35 | Cc1ccc(C(=O)O)cc1[N+](=O)[O-]
13 | 1.73 | COc1c([N+](=O)[O-])cc(C(=O)O)cc1[N+](=O)[O-]
